Data from patent publication US11969431B2, “Formulations for treatment of post-traumatic stress disorder” (Glytech LLC, priority 2017, dated 2024).
Entries after “also recorded” stand apart in the source; their conditions may differ.

Columns and labels:
mice = assay: Marble burying test; assay type: in vivo; conditions: for Effects on marble burying relative to racemic mirtazapine: Example 4, FIG. 2
C57BL/6J mice = assay: Open field (OF) test, locomotor activity; conditions: for Locomotor activity vs. vehicle: 30 min after administration; for Locomotor activity, Mean distance travelled over 30 min: C57BL/6J mice
[1] = Pharmacokinetics of DCS in rodent, plasma level by UPLC/MS/MS; assay type: in vivo, C57BL/6J mice
From the text: Male C57BL/6J mice (8 weeks old) from Jackson Laboratories (Bar Harbor, Maine) were used. Upon receipt, mice were assigned unique identification numbers (tail marked) and were group housed in OPTImice cages. All animals were acclimated to the colony room for 1 week prior to testing. During the period of acclimation, animals were examined on a regular basis, handled, and weighed to assure adequate health and suitability. Animals were maintained on a 12/12 light/dark cycle. The room temperature was maintained between 20 and 23° C. with a relative humidity maintained between 30% and 70%. Chow and water were provided ad libitum for the duration of the study. All testing was performed during the animal's light cycle phase.
Sample were collected at 30, 60 and 120 min from separate animals. Mean plasma levels across the 30-120 min timepoint was used for analysis. At each time point, trunk blood was collected in tubes containing K2EDTA and kept on ice for short-term storage. Within 15 minutes of blood collection, tubes were centrifuged for 10 minutes at 10,000 RPM in a refrigerated centrifuge. The supernatant (plasma) was extracted and transferred to pre-labeled tubes on dry ice. Samples were stored at approximately −80° C. until analyses.
Analysis of DCS in plasma and brain samples were performed utilizing an UPLC/MS/MS system consisted of an Acquity UPLC chromatographic system and a Quattro Premier XE triple quad mass spectrometer, both from Waters.
The range of standards utilized was 1.0-1000 ng/mL. Plasma samples were prepared in the same manner but with 10 μL of sample and 90 μL of the internal standard mix to provide 100 μL of sample after dilution for triplicate analysis.
The internal standards D9-Ach (parent 154.95DA to fragment 86.7DA) was incorporated into the samples to correct for sample matrix and instrument variability providing a more robust data set.

[2] = Pharmacokinetics of 250 mg PO D-cycloserine every 12 hrs in healthy volunteers (Park et al. 2015); assay type: in vivo, humans; conditions: 250 mg PO every 12 hrs; corresponding to AUC over 12 hrs
[3] = Pharmacokinetics of D-cycloserine in humans after 500 mg (Zhu et al. 2001); assay type: in vivo; conditions: corresponding to AUC over 24 hr
From the text: Critical parameters include maximum (peak) concentration achieved (Cmax), time to maximum concentration (Tmax) and area under the curve (AUC) during the dosing interval.

NMDAR [4] = target: T1, NMDAR (Homo sapiens, UniProt Q05586); assay: D-cycloserine plasma concentrations linked to agonist, antagonist and toxic effects; summary of human PK studies; assay type: in vivo, humans; conditions: consistent finding of human PK studies
T1 construct: endogenous in cells; host or cells: human subjects in vivo (neuronal receptors); no isolated protein
Procedure: D-cycloserine is an anti-tuberculosis medication that also acts as a partial glycine-site […] (aka mixed agonist/antagonist). […] Plasma concentrations associated with primarily agonist effects are primarily […]. Plasma concentrations associated with antagonist effects are >25 μg/mi. Increased liability for toxicity is observed at plasma levels >35 μg/mL.
Accordingly, the daily dose for producing such plasma levels will necessarily be above 500 mg/day, as described above.

Wistar-Kyoto (WKY) rats = assay: Cued fear conditioning / extinction training, freezing behavior in WKY rats; assay type: in vivo, rat; conditions: for Freezing behavior, direction of change vs. vehicle: WKY rats, across days 1 and 3
From the text: Inbred Wistar-Kyoto (WKY) rats have been used as models of several behavioral deficits, such as stress vulnerability and sleep disturbance.
Fear memories are crucial in psychiatric conditions such as PTSD. Pavlovian fear conditioning (FC) test is a widely-used behavioral assay in rodents for measurement of aversive learning and memory through learned associations between aversive stimulus (a mild electric shock) and a specific cue (e.g., a tone; cued conditioning) or a context in which electric shock had occurred (contextual conditioning). Once the association is established, the conditioned stimulus (CS, i.e. tone or context) can induce fear response in a similar manner to unconditioned stimulus (US, i.e. electric shock). However, if CS repeatedly presents without combination of US, extinction occurs in normal animals. Fear extinction is usually regarded as a new inhibitory learning after repeated or prolonged CS presentations without the US, which causes a gradual decrease in the magnitude and/or frequency of the conditioned response (i.e. freezing response in FC test). Deficits in such inhibitory learning can be regarded as a hallmark of clinical PTSD.
Young adult (about 7 weeks of age), male WKY and Wistar rats purchased from Charles River Laboratory were used in this study. Upon receipt, animals were group-housed (2 per cage) and acclimated for at least 7 days. All rats were examined, handled, and weighed prior to initiation of the study to assure adequate health and suitability. During the course of the study, 12/12 light/dark cycles were maintained. The room temperature was maintained between 20 and 23° C. with a relative humidity maintained around 50%. Rats were randomly assigned to each treatment group. All testing was conducted during the animals' light cycle.
When combined with DSC, the combinations were given in a cocktail 30 minute prior to extinction test • D-CPP-ene (5 mg/kg) was be dissolved in acidified saline and administered s.c 30 min prior to extinction test at a dose volume of 2 ml/kg • Lurasidone (Lur, 0.2 mg/kg was dissolved in saline and administered IP 30 min prior to test at a dose volume of 1 ml/kg • Quetiapine (QTP, 10 mg/kg) was dissolved in acidified saline and administered s.c 30 min prior to test at a dose volume of 1 ml/kg
The experiment was conducted in the fear conditioning system manufactured by Coulbourn Instruments (PA, USA). Animal's body movements are captured with a video system and the FreezeFrame software, and freezing is analyzed automatically by the FreezeView software (Coulbourn Instruments, PA, USA).
Fear Conditioning Training: Animals were exposed to 5 CS-US pairings of a 10 sec tone (70 dB conditioned stimulus/CS) co-terminating with a brief electric shock (0.5 mA for 1.0 sec unconditioned stimulus/US). The 5 CS-US pairings are separated by a 60 sec interval with the first CS at 120 s. The rats stage in boxes for one minute after the last shock before being moved out.
Extinction training: Extinction training was conducted twice at 24 and 72 hr post FC training. A cued FC extinction paradigm was applied. The extinction training was conducted in the “cylinder”, a changed context which is different from the boxes of FC training. The extinction training lasted 32-40 min, including 8-10 identical bins. Each bin includes a 2 min tone period followed by a 2 min no-tone period (inter-trial interval, ITI).
Percent freezing during bins 7-8 of extinction trainings (24 hr and 72 hr) was used to evaluate effectiveness of treatment. Data were analyzed by […] analyses of variance (ANOVA), with treatment/group and extinction stage (cues or bins) set as factors. Fisher LSD method was used in Post hoc comparisons if applicable.

NMDAR [5] = target: T1, NMDAR; conditions: cited from earlier work

## CN1CCN2c3ncccc3Cc3ccccc3C2C1 (racemic) [Mirtazapine]
mice; Example 3, mirtazapine 5.5 mg/kg IP 30 min prior to test
  Number of marbles buried compared to vehicle: significantly reduced the number of marbles buried
mice; Example 4, mirtazapine 1, 2.5, 5 and 10 mg/kg IP
  Number of marbles buried compared to vehicle: significantly reduced the number of marbles buried

## N[C@@H]1CON=C1O [D-cycloserine, 3-Isoxazolidinone, 4-amino-, (4R)-(9CI)]
C57BL/6J mice; D-cycloserine 30 mg/kg, p=0.5
  Locomotor activity vs. vehicle: not significantly affected
C57BL/6J mice; D-cycloserine 300 mg/kg, p<0.001
  Locomotor activity vs. vehicle: significantly increased
C57BL/6J mice; D-cycloserine 1000 mg/kg, p<0.001
  Locomotor activity vs. vehicle: significantly increased
C57BL/6J mice; DCS 30 mg/kg IP
  Locomotor activity, Mean distance travelled over 30 min: 4432.1
C57BL/6J mice; DCS 300 mg/kg IP
  Locomotor activity, Mean distance travelled over 30 min: 7588.5
[1]; 30 mg/kg IP, mice, mean across 30-120 min, difference from 25 not significant (p=0.2)
  DCS plasma level: below 25 microgram/mL
[1]; 100 mg/kg and above IP, mice, mean across 30-120 min, p<0.01
  DCS plasma level: > 25 microgram/mL
[1]; 300 mg/kg DCS as in prior examples
  DCS plasma level: > 25 micrograms/mL
[2]
  mean plasma level: 20. 2 microgram/mL
[3]
  median sustained plasma level: 8.9 microgram/mL
mice; Example 3, D-cycloserine 30 mg/kg IP 30 min prior to test
  Number of marbles buried compared to vehicle: did not affect this measure
mice; Example 3, D-cycloserine 300 mg/kg IP 30 min prior to test
  Number of marbles buried compared to vehicle: did not affect this measure
NMDAR [4]
  Sustained plasma level following 500 mg administration: below 25 microgram/mL
Wistar-Kyoto (WKY) rats; DCS 30 mg/kg IP 30 min prior to extinction test
  Percentage WKY animals showing freezing behavior >85% of the time in response to cue stimuli across day 1 and 3 following fear conditioning, Mean: 0.281
Wistar-Kyoto (WKY) rats; DCS 30 mg/kg IP
  Freezing behavior, direction of change vs. vehicle: no significant effect on freezing behavior
Wistar-Kyoto (WKY) rats; DCS 300 mg/kg IP 30 min prior to extinction test
  Percentage WKY animals showing freezing behavior >85% of the time in response to cue stimuli across day 1 and 3 following fear conditioning, Mean: 0.113
Wistar-Kyoto (WKY) rats; DCS 300 mg/kg IP, listed as DCS
  Freezing behavior, direction of change vs. vehicle: significant reduction in freezing behavior; also recorded: Decrease
Wistar-Kyoto (WKY) rats; DCS 300 mg/kg added to lurasidone 0.2 mg/kg, p=0.09
  Effect of high-dose DCS on freezing when added to lurasidone: tended to decrease freezing
Wistar-Kyoto (WKY) rats; DCS 300 mg/kg with quetiapine 10 mg/kg, p=0.3
  Effect of high-dose DCS on freezing in combination with quetiapine: without statistical effect
NMDAR [5]; NMDAR glycine site
  Plasma concentrations associated with antagonist effects: > 25 μg/mi
NMDAR [5]; in vivo
  Plasma levels at which increased liability for toxicity is observed: > 35000 ng/mL

## O=C(O)[C@H]1CN(C/C=C/P(=O)(O)O)CCN1 [DCPPene, D-(E)-4-(3-phosphonoprop-2-enyl)piperazine-2-carboxylic acid]
Wistar-Kyoto (WKY) rats; D-CPP-ene 5 mg/kg s.c. 30 min prior to extinction test
  Percentage WKY animals showing freezing behavior >85% of the time in response to cue stimuli across day 1 and 3 following fear conditioning, Mean: 0.625
Wistar-Kyoto (WKY) rats; D-CPP-ene 5 mg/kg s.c.
  Freezing behavior, direction of change vs. vehicle: Increase
Wistar-Kyoto (WKY) rats; D-CPP-ene 5 mg/kg s.c., listed as D-CPPene
  Freezing behavior, direction of change vs. vehicle: tended to increase freezing behavior

## O=C1[C@@H]2[C@H]3CC[C@H](C3)[C@@H]2C(=O)N1C[C@@H]1CCCC[C@H]1CN1CCN(c2nsc3ccccc23)CC1 [Lurasidone]
Wistar-Kyoto (WKY) rats; lurasidone 0.2 mg/kg IP 30 min prior to test
  Percentage WKY animals showing freezing behavior >85% of the time in response to cue stimuli across day 1 and 3 following fear conditioning, Mean: 0.531

## Fc1ccc([C@@H]2CCNC[C@H]2COc2ccc3c(c2)OCO3)cc1 [Paroxetine]
mice; Example 3, paroxetine 5 mg/kg IP 30 min prior to test
  Number of marbles buried compared to vehicle: significantly reduced the number of marbles buried
mice; Example 4, paroxetine 5 mg/kg IP
  Number of marbles buried compared to vehicle: significantly reduced the number of marbles buried

## OCCOCCN1CCN(C2=Nc3ccccc3Sc3ccccc32)CC1 [QTP, Quetiapine]
Wistar-Kyoto (WKY) rats; quetiapine 10 mg/kg s.c. 30 min prior to test
  Percentage WKY animals showing freezing behavior >85% of the time in response to cue stimuli across day 1 and 3 following fear conditioning, Mean: 0.625
Wistar-Kyoto (WKY) rats; quetiapine 10 mg/kg s.c.
  Freezing behavior, direction of change vs. vehicle: Increase
Wistar-Kyoto (WKY) rats; quetiapine 10 mg/kg s.c., listed as quetiapine
  Freezing behavior, direction of change vs. vehicle: tended to increase freezing behavior

## CN1CCN2c3ncccc3Cc3ccccc3[C@@H]2C1 [R-mirtazapine, R-(−)-mirtazapine]
mice
  Effects on marble burying relative to racemic mirtazapine: less robust
mice; Example 4, R-mirtazapine 10 mg/kg IP
  Number of marbles buried compared to vehicle: significantly reduced the number of marbles buried
mice; Example 4, R-mirtazapine 1, 2.5 and 5 mg/kg IP
  Number of marbles buried compared to vehicle: did not affect this measure
mice; R- vs S-isomer
  Relative effects of R- and S-isomers of mirtazapine on marble burying (FIG. 2 legend): greater effects

## CN1CCN2c3ncccc3Cc3ccccc3[C@H]2C1 [S-mirtazapine, S-(+)-mirtazapine]
mice
  Effects on marble burying relative to racemic mirtazapine: significantly more robust
mice; Example 4, S-mirtazapine 1, 2.5, 5, 10 mg/kg IP
  Number of marbles buried compared to vehicle: significantly reduced the number of marbles buried
mice; Example 4, S-mirtazapine with or without DCS
  Marble burying in the absence and presence of DCS: floor level effects

## CN[C@H]1CC[C@@H](c2ccc(Cl)c(Cl)c2)c2ccccc21 [Sertraline]
Wistar-Kyoto (WKY) rats; sertraline 20 mg/kg IP 30 min prior to test
  Percentage WKY animals showing freezing behavior >85% of the time in response to cue stimuli across day 1 and 3 following fear conditioning, Mean: 0.156
Wistar-Kyoto (WKY) rats; sertraline 20 mg/kg IP
  Freezing behavior, direction of change vs. vehicle: Decrease
Wistar-Kyoto (WKY) rats; sertraline 20 mg/kg IP, listed as sertraline
  Freezing behavior, direction of change vs. vehicle: significant reduction in freezing behavior
